In patent US10875856B2, “CPAP-tubulin module” (UNIVERSITAET ZU KOELN, priority 2015, dated 2020):
pIC50: −log10 of the molar value. Entries after “also recorded” stand apart in the source; their conditions may differ. Read-outs that look alike come from different tables or passages of the source.

Experiments:
CPAP-tubulin interaction = test: AlphaScreen assay of inhibition of the CPAP-tubulin interaction (normalized AlphaScreen signal; triplicate determination; TruHit kit as counter-control); type: binding
From the text: FIGS. 1 to 4, 19 and 20 show normalized AlphaScreen signal for conventional tubulin binders Vinblastin (FIG. 1), Paclitaxel (FIG. 2), Docetaxel (FIG. 3) Colchicin (FIG. 4), Bactallin III (FIG. 19) and Taxol (FIG. 20).
Most tubulin-binding agents act on spindle microtubules and thus prevent mitosis nonspecifically.
The Error bars in FIGS. 1 to 16, 19 and 20 indicate data from a triplicate determination. The TruHit Kit captures possible effects on AlphaScreen assay technology.

[1] = system: BT549, MDA-MB-231, PC9, H1975T790M, HCC827, POP10 cells; test: cancer cell proliferation, spectrum of cancer cell lines; type: cell-based; details: range over BT549, MDA-MB-231, PC9, H1975T790M
Procedure: (§1) To evaluate the effect of compound (A) in cancer cells, a spectrum of breast cancer-(BT549, MDA-MB-231), lung cancer-(TKI-sensitive PC9, TKI-resistant H1975^T790M or HCC827 with C-met amplification) and hepatocellular carcinoma-(POP10) cells was treated with compound (A) for 24 h.
The effects of compound (B) on a spectrum of breast cancer-(BT549, MDA-MB-231),NSCLC-(PC9, TM-resistant H1975T790M, HCC827-GR) and hepatocellular-carcinoma-(POP10)-cells were tested by treatment with compound (B) for 72 hrs.

[2] = system: subcutaneous human prostate tumor cell (PC3) xenografts; test: PC3 xenograft in nude mice; type: in vivo
Procedure: To evaluate the anti-tumor activity of compound (A), compound (A) was delivered to nude mice bearing subcutaneous human prostate tumor cell (PC3) xenografts. Compound (A) was administered (10 mg/kg) by oral gavage once per day and the rate of tumor growth was monitored. Compared to vehicle treated controls, it was noticed a reduction in tumor growth rate in compound-(A)-treated mice. Importantly, the anti-tumor activity of compound (A) could be observed as determined by reduced tumor volume with respect to control at day 10.
(§2) To evaluate if compound (B) has anti-tumor activity in vivo, nude mice bearing subcutaneous human prostate (PC3) and breast (MDA-MB-231) tumor xenografts were used.
(§3) In each case, two groups of mice bearing tumor volume >100 mm^3 were used. Compound (B) (10 or 20 mg, Kg-1/day) by oral gavage was delivered. At the end of treatment, we measured the total tumor volume of compound (B)-treated groups and compared with vehicle-treated controls.

cancer cells = test: 24 h EdU pulse labeling experiment; type: cell-based; details: 24 h pulse labeling
[3] = system: extra-centrosomes in cancer cells; test: cell-based assay of centrosome declustering activity
Procedure: as §1

[4] = system: MDA-MB-231 cells expressing tubulin-GFP; test: live cell experiments, MDA-MB-231 tubulin-GFP; type: cell-based
[5] = system: Plk-4-inducible MCF10A cells; test: tolerability and cellular toxicity in Plk-4-inducible MCF10A; type: cell-based, human
From the text: Building on Example 1, a proof-of-principle experiment was established in which lentiviral-mediated transduction of constitutive or doxycycline-inducible CPAP^F375A that cannot interact with tubulin (hereafter CPAPΔT) was introduced into non-transformed human mammary epithelial MCF10A cells. These MCF10A cells are engineered to regulate centrosome amplification via doxycycline-inducible overexpression of Polo-Like-Kinase (PLK4). Introducing CPAPΔT prematurely activated Plk4-induced extra-centrosomes in interphase to nucleate microtubules and prevented them from clustering.
Since compound (A) is a tubulin binder, its tolerability and cellular toxicity in comparison to taxol in Plk-4-inducible MCF10A was evaluated.

[6] = system: two-centrosomes containing cells; test: live imaging for microtubule toxic effect; type: cell-based
Procedure: Except compound (B), neither of the tested tubulin binders could perturb CPAP-tubulin interaction, enhance PCM recruitment to interphase centrosomes and prevent extra centrosomes from clustering. […] In addition, to rule out the possible microtubule toxic effect of compound (B), live imaging experiments were performed.

[7] = system: MCF10A (+Dox, extra centrosomes) and HCC827-GR cells; test: live imaging of extra-centrosome cells; type: cell-based, human
[8] = system: CPAP-tubulin interaction in MCF10A cells; test: immunopurification of CPAP complexes from treated cells; type: cell-based, human; details: CPAP complexes from cytoplasmic extracts of MCF10A
Procedure: Finally, it was tested if compound (B) could prevent CPAP-tubulin interaction in cells and simultaneously enhance the ability of CPAP to bind its interacting proteins. CPAP complexes from cytoplasmic extracts of compound (B)-treated MCF10A cells were immunopurified.

solubility = type: physicochemical
[9] = system: subcutaneous human breast (MDA-MB-231) tumor xenografts; test: MDA-MB-231 xenograft in nude mice; type: in vivo
Procedure: as §2, §3

[10] = system: 3D-organotypic cultures of H1975T790M, HCC827-GR and A549; test: 3D organotypic culture invasion model; type: cell-based
From the text: Further, to test whether preventing CPAP-tubulin interaction could impair cancer cell invasiveness, a three-dimensional (3D) organotypic culture model for cancer cells was adapted that recapitulates many aspects of human epithelial cancer tissue architecture.

[11] = system: Cep152, PCNT and CDK5RAP2 recruitment to interphase centrosomes of MCF10A cells; test: PCM protein recruitment to interphase centrosomes (imaging, heat map intensity); type: cell-based, human; details: versus vehicle
From the text: Mechanisms by which compound (B) activates extra centrosomes to nucleate enhanced microtubules were identified. Peri-centriolar material (PCM) recruitment to centrosomes is required for microtubule nucleation.
To test this, we estimated the amounts of Cep152, PCNT and CDK5RAP2 recruitment to interphase centrosomes of compound (B)—treated MCF10A cells.

stability = type: physicochemical
H827 cells = test: cell proliferation with erlotinib, H827; type: cell-based
A549 cells = test: cell proliferation with erlotinib, A549; type: cell-based

**Q.** With `CCC(CO)Nc1ncc2cc3ccccc3nc2c1C#N` (racemic) [Racemic mixture of compounds C and C‘] as the compound, how does the IC50 (CPAP-tubulin interaction; values given in µM) read?
**A.** 1.39 µM

**Q.** With `N#Cc1c(Cl)ncc2cc3ccccc3nc12` [Compound D] as the compound, how does the IC50 (CPAP-tubulin interaction; values in nM) read?
**A.** 0.023 µM

**Q.** With `N#Cc1c(NCc2ccccc2)ncc2cc3ccccc3nc12` [Compound E] as the compound, how does the IC50 (CPAP-tubulin interaction; values given in µM) read?
**A.** 1.21 µM

**Q.** For `Nc1n[nH]c2ncc3cc4ccccc4nc3c12` [Compound F], which IC50 (CPAP-tubulin interaction; values given in µM) is on record?
**A.** 6.94 µM

**Q.** Which IC50 (CPAP-tubulin interaction; values in nM) does the source give for `N#Cc1c(Sc2ccccc2)ncc2cc3ccccc3nc12` [Compound G] here?
**A.** 0.211 µM

**Q.** With `N#Cc1c(SCC(=O)Nc2ccccc2)ncc2cc3ccccc3nc12` [Compound I] as the compound, how does the IC50 (CPAP-tubulin interaction; values given in µM) read?
**A.** 1.76 µM

**Q.** For `N#Cc1c(N2CCCCCC2)ncc2cc3ccccc3nc12` [Compound J], which IC50 (CPAP-tubulin interaction; values given in µM) is on record?
**A.** 6.32 µM

**Q.** With `N#Cc1c(N2CCCCC2)ncc2cc3ccccc3nc12` [Compound L] as the compound, how does the IC50 (CPAP-tubulin interaction; values given in µM) read?
**A.** 1.88 µM

**Q.** Which IC50 (CPAP-tubulin interaction; values given in µM) does the source give for `CC(=O)O[C@H]1C(=O)[C@@]2(C)[C@H]([C@H](OC(=O)c3ccccc3)[C@]3(O)C[C@H](OC(=O)[C@H](O)[C@@H](NC(=O)c4ccccc4)c4ccccc4)C(C)=C1C3(C)C)[C@]1(OC(C)=O)CO[C@@H]1C[C@@H]2O` [Paclitaxel, reference compound] here?
**A.** 52.6 µM

**Q.** With `CCCCNc1ncc2cc3ccccc3nc2c1C#N` [compound (A)] as the compound, how does the pIC50 ([1]; HCC827, POP10, treated 24 h) read?
**A.** 5.54 to 6.07

**Q.** What about the “tumor growth rate versus vehicle” value ([2]; PC3, 10 mg/kg oral gavage once per day) of the same compound?
**A.** reduction

**Q.** And the “tumor volume with respect to control” value ([2]; PC3, 10 mg/kg oral gavage once per day, day 10)?
**A.** reduced

**Q.** And the “number of cancer cells with EdU incorporation” value (cancer cells)?
**A.** reduced number

**Q.** What about the “concentration causing declustering of extra-centrosomes in interphase” value ([3]; BT549 cells, 24 h treatment) of the same compound?
**A.** 500 nM

**Q.** And the “mitosis and cell fate in live cells” value [4]?
**A.** prolonged mitosis with eventual apoptosis

**Q.** And the “proliferation of MCF10A cells that harbor extra centrosomes” value [5]?
**A.** specifically inhibited

**Q.** And the “concentration tolerated without defect in bipolar mitotic spindles” value ([5]; MCF10A cells with two centrosomes)?
**A.** up to 10 μM

**Q.** With `COc1ncc2cc3ccccc3nc2c1C#N` [compound (B), 3-Methoxybenzo[b][1,6]naphthyridine-4-carbonitrile] as the compound, how does the pIC50 ([1]; HCC827-GR, POP10, treated 72 hrs) read?
**A.** 5.54 to 6.07

**Q.** And the “concentration not affecting microtubule dynamics, cell cycle progression or mitotic spindle assembly” value [6]?
**A.** up to 5 μM

**Q.** What about the “concentration not preventing formation of bipolar mitotic spindles” value [6] of the same compound?
**A.** up to 8 μM

**Q.** What about the “tumor growth rate versus vehicle” value ([2]; PC3, 10 or 20 mg/kg/day oral gavage) of the same compound?
**A.** significant reduction

**Q.** What about the “tumor volume with respect to control” value ([2]; PC3, after 10 days) of the same compound?
**A.** reduced

**Q.** What about the “body weights of treated animals” value ([2]; PC3 model, 10 or 20 mg/kg/day oral) of the same compound?
**A.** did not change

**Q.** What about the “centrosome declustering activity (preventing extra centrosomes from clustering)” value ([3]; cancer cells) of the same compound?
**A.** potent; also recorded: prevented clustering of extra centrosomes

**Q.** And the “mitosis and cell fate in live imaging” value [7]?
**A.** prolonged mitosis with an apparent apoptosis

**Q.** And the “CPAP-tubulin interaction in cells” value [8]?
**A.** specifically perturbs

**Q.** And the “solubility relative to compound (A)” value (solubility)?
**A.** increased

**Q.** What about the “tumor growth rate versus vehicle” value ([9]; MDA-MB-231, 10 or 20 mg/kg/day oral gavage) of the same compound?
**A.** significant reduction

**Q.** What about the “tumor volume with respect to control” value ([9]; MDA-MB-231, after 31 days) of the same compound?
**A.** reduced

**Q.** What about the “body weights of treated animals” value ([9]; MDA-MB-231 model, 10 or 20 mg/kg/day oral) of the same compound?
**A.** did not change

**Q.** What about the “prevention of actin-positive invasive protrusions from 3D spheres” value ([10]; 5 μM, H1975T790M, HCC827-GR, A549 organoids) of the same compound?
**A.** sufficient to prevent

**Q.** What about the “cell death in organoids” value ([10]; H1975T790M organoids) of the same compound?
**A.** activated caspase-positive cells

**Q.** And the organoid growth ([10]; treated organoids)?
**A.** did not grow further from its original size

**Q.** What about the “recruitment of PCM proteins (Cep152, PCNT, CDK5RAP2) to interphase centrosomes” value [11] of the same compound?
**A.** enhanced amounts

**Q.** What about the “stability relative to compound (A)” value (stability) of the same compound?
**A.** increased

**Q.** Which results are given for `C#Cc1cccc(Nc2ncnc3cc(OCCOC)c(OCCOC)cc23)c1` [erlotinib]?
**A.** pIC50 (H827 cells; H827, combined with 750 nM compound (A), read-out: IC50 of erlotinib in combinatorial treatment): 7.52; pIC50 (H827 cells; H827, single agent, read-out: IC50 of cell proliferation): 5.16; centrosome clustering in H827 ([3]; H827 cells, erlotinib treatment): does not affect centrosome clustering; pIC50 (A549 cells; A549, single agent, read-out: IC50 of cell proliferation): 5.29; pIC50 (A549 cells; Homo sapiens, A549, A549, addition of 1.5 μM compound (A), read-out: IC50 of erlotinib in combinatorial treatment): 6.30; pIC50 (A549 cells; Homo sapiens, A549, A549, single agent, read-out: IC50 of cell proliferation): 5.30; prevention of formation of invasive protrusions ([10]; 3D organotypic cultures of H1975 and A549): not

**Q.** For `CC(=O)O[C@H]1C(=O)[C@@]2(C)[C@H]([C@H](OC(=O)c3ccccc3)[C@]3(O)C[C@H](OC(=O)[C@H](O)[C@@H](NC(=O)c4ccccc4)c4ccccc4)C(C)=C1C3(C)C)[C@]1(OC(C)=O)CO[C@@H]1C[C@@H]2O` [taxol, reference compound], which “concentration that collapsed the spindles” value [6] is on record?
**A.** 30 nM

**Q.** What about the “MCF10A cell proliferation regardless of extra centrosomes” value ([5]; 100 nM) of the same compound?
**A.** non-selectively prevented

**Q.** And the “centrosome clustering in MCF10A” value ([5]; taxol treatment)?
**A.** did not affect centrosome clustering
